{"source": "patent US20240210412A1", "about": "“SULFONYL-TRIAZOLE COMPOUNDS USEFUL AS LIGANDS AND INHIBITORS OF PROSTAGLANDIN REDUCTASE 2” (University of Virginia Patent Foundation, priority 2021, published 2024)", "assay_in_all_cases": "SILAC LC-MS ABPP", "assay_type_in_all_cases": "cell-based", "details_in_all_cases": "25 μM 2 h, live DM93 cells", "key": {"[1]": {"target": "T1, P61289 (Homo sapiens, UniProt P61289)", "T1 construct": "endogenous in cells; host or cells: DM93 cells (SILAC)", "summary_of_the_method": "(§1)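 SILAC DM93 melanoma; heavy cells got SuTEx fragment 25 μM 2 h 37 °C, light got DMSO; then HHS-475 100 μM 2 h. Soluble fraction (100,000×g) CuAAC to desthiobiotin-azide (200 μM), light/heavy mixed 1:1, tryptic digest, avidin enrichment, LC-MS/MS.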"}, "[2]": {"target": "T2, O95163 (Homo sapiens, UniProt O95163)", "T2 construct": "endogenous in cells; host or cells: DM93 cells (SILAC)", "summary_of_the_method": "as §1"}, "[3]": {"target": "T3, Q6N069 (Homo sapiens, UniProt Q6N069)", "T3 construct": "performing SuTEx compound screening directly in cells; endogenous in cells; host or cells: DM93 cells (SILAC), soluble fraction", "summary_of_the_method": "as §1"}, "[4]": {"target": "T4, Q8IX04 (Homo sapiens, UniProt Q8IX04)", "T4 construct": "endogenous in cells; host or cells: DM93 cells (SILAC), live-cell treatment", "T4 sequence (Q8IX04 whole entry)": "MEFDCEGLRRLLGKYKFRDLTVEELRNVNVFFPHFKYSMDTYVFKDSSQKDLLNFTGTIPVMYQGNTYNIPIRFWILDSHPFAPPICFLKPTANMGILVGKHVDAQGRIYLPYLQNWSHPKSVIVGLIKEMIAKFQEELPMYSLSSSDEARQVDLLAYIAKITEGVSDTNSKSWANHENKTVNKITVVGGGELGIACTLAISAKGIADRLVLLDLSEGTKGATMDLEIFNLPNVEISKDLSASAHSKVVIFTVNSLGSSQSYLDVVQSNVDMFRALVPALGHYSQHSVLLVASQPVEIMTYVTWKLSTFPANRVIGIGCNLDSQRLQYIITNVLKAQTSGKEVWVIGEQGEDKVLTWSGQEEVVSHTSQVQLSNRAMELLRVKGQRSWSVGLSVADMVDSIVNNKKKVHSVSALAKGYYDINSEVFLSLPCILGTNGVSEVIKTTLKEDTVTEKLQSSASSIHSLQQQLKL", "summary_of_the_method": "as §1"}, "[5]": {"target": "T5, O43852 (Homo sapiens, UniProt O43852)", "T5 construct": "endogenous in cells; host or cells: DM93", "T5 sequence (O43852 20-315)": "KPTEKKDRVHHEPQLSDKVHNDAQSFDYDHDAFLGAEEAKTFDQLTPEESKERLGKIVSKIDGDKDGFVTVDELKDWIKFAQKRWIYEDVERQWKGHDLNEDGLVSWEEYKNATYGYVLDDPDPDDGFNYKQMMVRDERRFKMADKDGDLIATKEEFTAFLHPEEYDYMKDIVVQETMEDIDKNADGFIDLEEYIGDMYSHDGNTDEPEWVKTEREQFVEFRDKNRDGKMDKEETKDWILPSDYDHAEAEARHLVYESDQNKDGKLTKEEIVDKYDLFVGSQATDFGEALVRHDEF", "summary_of_the_method": "as §1"}, "[6]": {"target": "T6, P42704 (Homo sapiens, UniProt P42704)", "T6 construct": "endogenous in cells; host or cells: DM93 cells (SILAC)", "summary_of_the_method": "as §1"}, "[7]": {"target": "T7, Q92878 (Homo sapiens, UniProt Q92878)", "T7 construct": "endogenous in cells; host or cells: DM93 cells (SILAC), live-cell treatment", "summary_of_the_method": "as §1"}, "[8]": {"target": "T8, P18206 (Homo sapiens, UniProt P18206)", "T8 construct": "Probe-modified proteins from the soluble fraction were conjugated to a desthiobiotin-azide tag; endogenous in cells; host or cells: DM93 (SILAC)", "summary_of_the_method": "as §1"}, "[9]": {"target": "T9, Q92889 (Homo sapiens, UniProt Q92889)", "T9 construct": "endogenous in cells; host or cells: DM93 cells (SILAC), live-cell treatment", "T9 sequence (Q92889 whole entry)": "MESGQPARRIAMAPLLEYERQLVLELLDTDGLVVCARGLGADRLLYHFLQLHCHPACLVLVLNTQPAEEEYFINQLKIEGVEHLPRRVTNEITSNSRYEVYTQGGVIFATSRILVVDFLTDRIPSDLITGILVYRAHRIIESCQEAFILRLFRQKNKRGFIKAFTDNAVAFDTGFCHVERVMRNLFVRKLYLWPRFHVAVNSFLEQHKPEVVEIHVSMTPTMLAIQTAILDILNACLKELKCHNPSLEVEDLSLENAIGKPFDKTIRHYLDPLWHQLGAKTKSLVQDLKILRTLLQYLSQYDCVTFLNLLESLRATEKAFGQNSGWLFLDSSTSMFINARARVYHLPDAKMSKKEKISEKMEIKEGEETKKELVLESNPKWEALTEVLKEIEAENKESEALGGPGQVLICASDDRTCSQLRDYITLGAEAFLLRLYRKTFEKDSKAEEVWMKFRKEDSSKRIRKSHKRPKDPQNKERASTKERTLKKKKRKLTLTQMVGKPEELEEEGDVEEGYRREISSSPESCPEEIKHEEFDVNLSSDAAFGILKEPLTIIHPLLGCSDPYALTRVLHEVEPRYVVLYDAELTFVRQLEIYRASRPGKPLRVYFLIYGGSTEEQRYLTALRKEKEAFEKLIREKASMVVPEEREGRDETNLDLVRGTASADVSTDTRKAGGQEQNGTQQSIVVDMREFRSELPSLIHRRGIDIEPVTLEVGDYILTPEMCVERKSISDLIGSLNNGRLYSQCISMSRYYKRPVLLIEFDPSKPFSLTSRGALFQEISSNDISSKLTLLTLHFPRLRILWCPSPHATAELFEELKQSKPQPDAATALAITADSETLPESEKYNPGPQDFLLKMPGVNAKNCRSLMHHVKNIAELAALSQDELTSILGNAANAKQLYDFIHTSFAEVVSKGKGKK", "summary_of_the_method": "as §1"}, "[10]": {"target": "T10, Q13057 (Homo sapiens, UniProt Q13057)", "T10 construct": "performing SuTEx compound screening directly in cells; endogenous in cells; host or cells: DM93 cells (SILAC), soluble fraction", "summary_of_the_method": "as §1"}, "[11]": {"target": "T11, Q14914 (Homo sapiens, UniProt Q14914)", "T11 construct": "performing SuTEx compound screening directly in cells; endogenous in cells; host or cells: DM93 cells (SILAC), soluble fraction", "summary_of_the_method": "as §1"}, "[12]": {"target": "T12, P57081 (Homo sapiens, UniProt P57081)", "T12 construct": "Probe-modified proteins from the soluble fraction were conjugated to a desthiobiotin-azide tag; endogenous in cells; host or cells: DM93 cells (SILAC)", "summary_of_the_method": "as §1"}, "[13]": {"target": "T13, P06132 (Homo sapiens, UniProt P06132)", "T13 construct": "endogenous in cells; host or cells: DM93 cells (SILAC)", "summary_of_the_method": "as §1"}, "[14]": {"target": "T14, Q13428 (Homo sapiens, UniProt Q13428)", "T14 construct": "performing SuTEx compound screening directly in cells; endogenous in cells; host or cells: DM93 cells (SILAC), soluble fraction", "T14 sequence (Q13428 whole entry)": "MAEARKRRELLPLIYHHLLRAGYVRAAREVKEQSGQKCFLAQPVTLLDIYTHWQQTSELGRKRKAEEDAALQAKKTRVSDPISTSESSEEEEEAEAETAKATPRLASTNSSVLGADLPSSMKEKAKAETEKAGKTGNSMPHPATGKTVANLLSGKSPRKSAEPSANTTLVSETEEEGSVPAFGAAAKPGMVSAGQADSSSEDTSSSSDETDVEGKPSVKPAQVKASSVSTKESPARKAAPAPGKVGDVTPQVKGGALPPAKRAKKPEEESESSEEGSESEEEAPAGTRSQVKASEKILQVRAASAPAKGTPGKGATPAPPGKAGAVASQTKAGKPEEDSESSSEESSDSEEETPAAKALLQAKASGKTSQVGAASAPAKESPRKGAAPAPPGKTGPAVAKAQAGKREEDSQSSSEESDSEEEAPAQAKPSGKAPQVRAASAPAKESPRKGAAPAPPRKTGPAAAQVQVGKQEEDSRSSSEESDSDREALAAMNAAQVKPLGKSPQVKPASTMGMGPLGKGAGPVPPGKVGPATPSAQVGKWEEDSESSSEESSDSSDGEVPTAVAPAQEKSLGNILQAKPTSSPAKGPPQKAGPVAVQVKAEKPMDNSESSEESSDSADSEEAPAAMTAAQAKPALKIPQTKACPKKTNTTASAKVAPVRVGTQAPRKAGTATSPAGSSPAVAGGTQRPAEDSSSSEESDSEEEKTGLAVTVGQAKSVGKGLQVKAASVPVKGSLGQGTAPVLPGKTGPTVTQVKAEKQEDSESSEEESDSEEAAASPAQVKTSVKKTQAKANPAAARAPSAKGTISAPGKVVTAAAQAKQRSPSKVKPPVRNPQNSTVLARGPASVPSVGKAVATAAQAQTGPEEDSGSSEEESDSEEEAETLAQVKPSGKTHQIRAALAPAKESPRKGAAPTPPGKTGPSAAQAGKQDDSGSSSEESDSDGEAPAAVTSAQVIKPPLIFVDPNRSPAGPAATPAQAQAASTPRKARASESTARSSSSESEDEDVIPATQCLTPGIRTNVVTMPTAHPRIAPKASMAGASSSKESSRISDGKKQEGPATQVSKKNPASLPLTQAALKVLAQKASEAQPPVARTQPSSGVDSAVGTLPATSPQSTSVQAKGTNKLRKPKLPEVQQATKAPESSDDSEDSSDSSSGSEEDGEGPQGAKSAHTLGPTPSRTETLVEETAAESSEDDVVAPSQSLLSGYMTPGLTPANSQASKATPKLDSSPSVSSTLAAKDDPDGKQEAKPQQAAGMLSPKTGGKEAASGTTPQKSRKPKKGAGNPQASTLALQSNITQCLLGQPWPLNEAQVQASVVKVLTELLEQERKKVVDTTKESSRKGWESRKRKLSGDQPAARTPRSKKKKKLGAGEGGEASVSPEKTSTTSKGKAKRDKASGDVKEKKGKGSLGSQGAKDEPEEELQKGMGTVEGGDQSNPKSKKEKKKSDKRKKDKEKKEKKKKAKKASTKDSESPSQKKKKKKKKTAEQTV", "summary_of_the_method": "as §1"}, "[15]": {"target": "T15, P06396 (Homo sapiens, UniProt P06396)", "T15 construct": "endogenous in cells; host or cells: DM93 cells (SILAC)", "summary_of_the_method": "as §1"}, "[16]": {"target": "T16, P43490 (Homo sapiens, UniProt P43490)", "T16 construct": "endogenous in cells; host or cells: DM93 cells (SILAC)", "summary_of_the_method": "as §1"}, "[17]": {"target": "T17, O14777 (Homo sapiens, UniProt O14777)", "T17 construct": "endogenous in cells; host or cells: DM93", "T17 sequence (O14777 whole entry)": "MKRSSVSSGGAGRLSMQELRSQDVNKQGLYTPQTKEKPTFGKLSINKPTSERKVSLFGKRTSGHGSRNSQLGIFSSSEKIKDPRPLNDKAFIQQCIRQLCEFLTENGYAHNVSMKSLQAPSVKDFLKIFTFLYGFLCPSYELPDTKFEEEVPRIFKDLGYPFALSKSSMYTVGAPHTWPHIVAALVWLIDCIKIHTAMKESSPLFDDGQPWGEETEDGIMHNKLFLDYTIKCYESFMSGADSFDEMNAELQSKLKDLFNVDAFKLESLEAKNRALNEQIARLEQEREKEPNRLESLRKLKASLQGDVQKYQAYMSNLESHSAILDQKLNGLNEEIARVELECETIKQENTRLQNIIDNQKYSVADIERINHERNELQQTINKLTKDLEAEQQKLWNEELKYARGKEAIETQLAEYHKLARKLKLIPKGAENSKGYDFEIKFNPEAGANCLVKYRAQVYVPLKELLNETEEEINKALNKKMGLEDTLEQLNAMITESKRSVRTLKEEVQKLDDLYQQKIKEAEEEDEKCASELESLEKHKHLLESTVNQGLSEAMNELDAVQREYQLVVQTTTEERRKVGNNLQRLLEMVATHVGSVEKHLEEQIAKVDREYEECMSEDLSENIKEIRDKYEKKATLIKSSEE", "summary_of_the_method": "as §1"}, "[18]": {"target": "T18, Q92620 (Homo sapiens, UniProt Q92620)", "T18 construct": "endogenous in cells; host or cells: DM93 cells (SILAC), live-cell treatment", "T18 sequence (Q92620 whole entry)": "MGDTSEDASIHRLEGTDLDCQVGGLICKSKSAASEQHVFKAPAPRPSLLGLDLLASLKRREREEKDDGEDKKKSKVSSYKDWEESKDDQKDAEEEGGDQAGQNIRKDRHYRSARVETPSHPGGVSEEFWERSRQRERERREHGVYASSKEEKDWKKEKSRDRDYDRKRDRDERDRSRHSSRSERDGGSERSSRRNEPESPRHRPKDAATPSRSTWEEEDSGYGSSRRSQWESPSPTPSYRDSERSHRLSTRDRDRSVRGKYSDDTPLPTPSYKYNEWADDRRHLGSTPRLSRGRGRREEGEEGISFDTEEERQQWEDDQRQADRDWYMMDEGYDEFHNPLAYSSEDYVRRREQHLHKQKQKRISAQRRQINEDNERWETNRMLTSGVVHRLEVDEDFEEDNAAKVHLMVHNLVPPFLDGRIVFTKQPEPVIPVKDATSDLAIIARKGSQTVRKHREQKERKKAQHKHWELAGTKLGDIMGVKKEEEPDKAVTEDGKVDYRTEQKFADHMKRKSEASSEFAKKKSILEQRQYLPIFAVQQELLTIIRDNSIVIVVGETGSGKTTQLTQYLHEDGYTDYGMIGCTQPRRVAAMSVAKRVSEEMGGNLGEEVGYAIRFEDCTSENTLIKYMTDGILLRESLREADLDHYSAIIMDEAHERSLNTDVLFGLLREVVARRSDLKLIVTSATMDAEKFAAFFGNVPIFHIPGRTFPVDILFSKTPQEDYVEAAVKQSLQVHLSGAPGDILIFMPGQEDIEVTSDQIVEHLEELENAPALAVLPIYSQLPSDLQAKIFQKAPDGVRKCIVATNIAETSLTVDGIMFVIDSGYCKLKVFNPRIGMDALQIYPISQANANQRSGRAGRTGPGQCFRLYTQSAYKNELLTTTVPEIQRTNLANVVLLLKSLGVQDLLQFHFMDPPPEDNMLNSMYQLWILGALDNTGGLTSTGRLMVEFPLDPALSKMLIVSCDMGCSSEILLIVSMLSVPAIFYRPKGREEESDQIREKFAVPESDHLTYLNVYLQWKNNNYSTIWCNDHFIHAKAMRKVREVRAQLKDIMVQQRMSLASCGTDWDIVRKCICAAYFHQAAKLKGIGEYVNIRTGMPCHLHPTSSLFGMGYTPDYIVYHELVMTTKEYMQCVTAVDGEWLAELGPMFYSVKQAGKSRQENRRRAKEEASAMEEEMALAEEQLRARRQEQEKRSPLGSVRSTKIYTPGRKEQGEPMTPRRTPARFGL", "summary_of_the_method": "as §1"}}}
{"smiles": "O=C(NC1CC1)c1ccc(S(=O)(=O)n2cncn2)cc1", "note": "[HHS-0101, 4-((1H-1,2,4-triazol-1-yl)sulfonyl)-N-cyclopropylbenzamide]", "values": [{"measurement": "liganded tyrosine site 196", "setting": "[1]", "result": "HHS0101.Y|HHS0201.Y|HHS0401.Y (tyrosine sites that showed >80% reductions (SR >5) in probe labeling in cells treated with compounds (liganded sites))"}, {"measurement": "liganded tyrosine site 957", "setting": "[2]", "result": "HHS0101.Y|HHS0301.Y|HHS0401.Y (tyrosine sites that showed >80% reductions (SR >5) in probe labeling in cells treated with compounds (liganded sites))"}, {"measurement": "liganded tyrosine site 86", "setting": "[3]", "result": "HHS0101.Y|HHS0701.Y (tyrosine sites that showed >80% reductions (SR >5) in probe labeling in cells treated with compounds (liganded sites))"}, {"measurement": "liganded tyrosine site 158", "setting": "[4]", "result": "HHS0101.Y|HHS0201.Y|HHS0301.Y (tyrosine sites that showed >80% reductions (SR >5) in probe labeling in cells treated with compounds (liganded sites))"}]}
{"smiles": "O=C(NCC1CC1)c1ccc(S(=O)(=O)n2cncn2)cc1", "note": "[HHS-0201, 4-((1H-1,2,4-triazol-1-yl)sulfonyl)-N-(cyclopropylmethyl)benzamide]", "values": [{"measurement": "liganded tyrosine site 294", "setting": "[5]", "result": "HHS0201.Y (tyrosine sites that showed >80% reductions (SR >5) in probe labeling in cells treated with compounds (liganded sites))"}, {"measurement": "liganded tyrosine site 1365", "setting": "[6]", "result": "HHS0201.Y (tyrosine sites that showed >80% reductions (SR >5) in probe labeling in cells treated with compounds (liganded sites))"}, {"measurement": "liganded tyrosine site 244", "setting": "[7]", "result": "HHS0201.Y|HHS0301.Y (tyrosine sites that showed >80% reductions (SR >5) in probe labeling in cells treated with compounds (liganded sites))"}, {"measurement": "liganded tyrosine site 100", "setting": "[8]", "result": "HHS0201.Y|HHS0301.Y (tyrosine sites that showed >80% reductions (SR >5) in probe labeling in cells treated with compounds (liganded sites))"}]}
{"smiles": "O=C(NC1CCCCC1)c1ccc(S(=O)(=O)n2cncn2)cc1", "note": "[HHS-0301, 4-((1H-1,2,4-triazol-1-yl)sulfonyl)-N-cyclohexylbenzamide]", "values": [{"measurement": "liganded tyrosine site 344", "setting": "[9]", "result": "HHS0301.Y|HHS0401.Y (tyrosine sites that showed >80% reductions (SR >5) in probe labeling in cells treated with compounds (liganded sites))"}, {"measurement": "liganded tyrosine site 126", "setting": "[10]", "result": "HHS0301.Y (tyrosine sites that showed >80% reductions (SR >5) in probe labeling in cells treated with compounds (liganded sites))"}]}
{"smiles": "O=C(NCc1ccccc1)c1ccc(S(=O)(=O)n2cncn2)cc1", "note": "[HHS-0401, 4-((1H-1,2,4-triazol-1-yl)sulfonyl)-N-benzylbenzamide]", "values": [{"measurement": "liganded tyrosine site 262", "setting": "[11]", "result": "HHS0401.Y (tyrosine sites that showed >80% reductions (SR >5) in probe labeling in cells treated with compounds (liganded sites))"}, {"measurement": "liganded tyrosine site 371", "setting": "[12]", "result": "HHS0401.Y (tyrosine sites that showed >80% reductions (SR >5) in probe labeling in cells treated with compounds (liganded sites))"}, {"measurement": "liganded tyrosine site 164", "setting": "[13]", "result": "HHS0401.Y (tyrosine sites that showed >80% reductions (SR >5) in probe labeling in cells treated with compounds (liganded sites))"}, {"measurement": "liganded tyrosine site 15", "setting": "[14]", "result": "HHS0401.Y (tyrosine sites that showed >80% reductions (SR >5) in probe labeling in cells treated with compounds (liganded sites))"}]}
{"smiles": "O=C(c1ccc(S(=O)(=O)n2cncn2)cc1)N1CCC(c2ccccc2)CC1", "note": "[HHS-0701, (4-((1H-1,2,4-triazol-1-yl)sulfonyl)phenyl)(4-phenylpiperidin-1-yl)methanone]", "values": [{"measurement": "liganded tyrosine site 469", "setting": "[15]", "result": "HHS0701.Y (tyrosine sites that showed >80% reductions (SR >5) in probe labeling in cells treated with compounds (liganded sites))"}, {"measurement": "liganded tyrosine site 188", "setting": "[16]", "result": "HHS0701.Y (tyrosine sites that showed >80% reductions (SR >5) in probe labeling in cells treated with compounds (liganded sites))"}, {"measurement": "liganded tyrosine site 310", "setting": "[17]", "result": "HHS0701.Y (tyrosine sites that showed >80% reductions (SR >5) in probe labeling in cells treated with compounds (liganded sites))"}, {"measurement": "liganded tyrosine site 261", "setting": "[18]", "result": "HHS0701.Y (tyrosine sites that showed >80% reductions (SR >5) in probe labeling in cells treated with compounds (liganded sites))"}]}
